Test results from patent publication US8853230B2, “Inhibitors of JAK” (Portola Pharmaceuticals, Inc., priority 2009, dated 2014).

Key:
Format in all cases: biochemical
JAK1 = target: T1, JAK1 (Homo sapiens, UniProt P23458); assay: Z'-LYTE kinase assay, JAK1 tyrosine phosphorylation activity; settings: read-out: JAK 1 IC50
T1 construct: 5 μl of catalytic domain recombinant Kinase enzyme+Tyr peptide substrate (Invitrogen, Calif.); purchased Invitrogen
Procedure: (§1) JAK and TYK2 tyrosine phosphorylation activity is measured using the Z′-LYTE™ Technology developed by Invitrogen Corporation (Carlsbad, Calif.). For JAK1, JAK2 and JAK3 the Z′-LYTE™ Kinase Assay Kit-Tyr6 Peptide (part number PV4122) was used. For TYK2 the Z′-LYTE™ Kinase Assay Kit-Tyr6 Peptide (part number PV3192) was used. The Z′-LYTE™ biochemical assay employs a fluorescence resonance energy transfer (FRET) coupled-enzyme format and is based on the differential sensitivity of phosphorylated and non-phosphorylated peptides to proteolitic cleavage. The assay uses a synthetic peptide substrate that is labelled with a donor fluorophore (coumarin) and an acceptor fluorophore (fluorescein) that make up a FRET pair. In the primary reaction (the Kinase Reaction), the kinase transfers the γ-phosphate of ATP to a single tyrosine residue on the substrate, while the presence of a kinase inhibitor in the primary reaction suppresses phosphorylation. In the secondary reaction (the Development Reaction), a site-specific protease (the Development Reagent) is added. The development buffer quenches the Kinase Reaction, while the protease recognizes and cleaves non-phosphorylated Z′-LYTE™ peptide substrate. Cleavage disrupts FRET between the donor and acceptor fluorophores on the non-phosphoryleted substrate, while uncleaved, phosphorylated substrate maintains FRET.
(§2) To test the ability of candidate molecules to inhibit JAK tyrosine phosphorylation activity, molecules are reconstituted in 100% DMSO and serially diluted 1:10 in polypropylene v-bottom microtiter plates. The candidate molecules are then diluted 1:25 into kinase buffer and 2.5 μl transferred into duplicate wells of a 384 well low volume black microtiter assay plate (Corning, USA). The final DMSO concentration in the assay is 1%. The kinase reaction contains 2.5 μl of a candidate molecule, 5 μl of catalytic domain recombinant Kinase enzyme+Tyr peptide substrate (Invitrogen, Calif.) and 2.5 μl ATP (Invitrogen, Calif.). The kinase reaction is allowed to procede for 1 hour at room temperature. The protease reaction is initiated by the addition of 5 μl Development Reagent (Invitrogen, Calif.). After 1 hour incubation at room temperature the fluorescence is measured using a FlexStation plate reader (Molecular Devices, Sunnyvale, Calif.). The reader settings used are as follows: Fluorescence mode, endpoint, top read, excitation 400 nm, emission 445 nm and 520 nm, Auto Cutoff 435 nm and 515 nm, PMT sensitivity high, 6 reads per well. Inhibition of JAK activity is calculated as the percent phosphorylation of substrate in the presence of inhibitor compared to the percent phosphorylation of substrate in the absence of inhibitor. IC50's were derived using Xlfit 4.3 (IDBS, UK), 4 parameter logistic model 205: Y=(A+((B−A)/(1+((C/x)^D)))).

JAK2 = target: T2, JAK2 (Homo sapiens, UniProt O60674); assay: Z'-LYTE kinase assay, JAK2 tyrosine phosphorylation activity
T2 construct: 5 μl of catalytic domain recombinant Kinase enzyme+Tyr peptide substrate (Invitrogen, Calif.); purchased Invitrogen
T2 sequence (O60674 849-1124 limits assumed): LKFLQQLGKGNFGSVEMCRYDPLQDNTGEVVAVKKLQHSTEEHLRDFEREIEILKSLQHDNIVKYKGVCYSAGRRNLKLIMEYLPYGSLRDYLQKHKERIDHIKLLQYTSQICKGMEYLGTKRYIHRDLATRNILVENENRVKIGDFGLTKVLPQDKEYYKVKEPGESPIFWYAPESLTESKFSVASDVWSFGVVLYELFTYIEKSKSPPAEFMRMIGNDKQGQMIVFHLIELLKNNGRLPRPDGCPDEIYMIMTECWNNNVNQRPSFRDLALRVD
Procedure: as §1, §2

JAK3 = target: T3, JAK3 (Homo sapiens, UniProt P52333); assay: Z'-LYTE kinase assay, JAK3 tyrosine phosphorylation activity
T3 construct: 5 μl of catalytic domain recombinant Kinase enzyme+Tyr peptide substrate (Invitrogen, Calif.); purchased Invitrogen
T3 sequence (P52333 822-1111 limits assumed): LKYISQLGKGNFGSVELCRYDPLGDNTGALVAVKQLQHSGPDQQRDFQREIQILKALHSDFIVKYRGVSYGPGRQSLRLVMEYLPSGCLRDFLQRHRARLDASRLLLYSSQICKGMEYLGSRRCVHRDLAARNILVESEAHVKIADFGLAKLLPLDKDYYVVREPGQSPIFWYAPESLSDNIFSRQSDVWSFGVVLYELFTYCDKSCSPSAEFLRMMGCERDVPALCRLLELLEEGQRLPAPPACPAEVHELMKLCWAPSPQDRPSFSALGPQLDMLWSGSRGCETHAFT
Procedure: as §1, §2

TYK2 = target: T4, TYK2 (Homo sapiens, UniProt P29597); assay: Z'-LYTE kinase assay, TYK2 tyrosine phosphorylation activity
T4 construct: 5 μl of catalytic domain recombinant Kinase enzyme+Tyr peptide substrate (Invitrogen, Calif.); purchased Invitrogen
T4 sequence (P29597 897-1176 limits assumed): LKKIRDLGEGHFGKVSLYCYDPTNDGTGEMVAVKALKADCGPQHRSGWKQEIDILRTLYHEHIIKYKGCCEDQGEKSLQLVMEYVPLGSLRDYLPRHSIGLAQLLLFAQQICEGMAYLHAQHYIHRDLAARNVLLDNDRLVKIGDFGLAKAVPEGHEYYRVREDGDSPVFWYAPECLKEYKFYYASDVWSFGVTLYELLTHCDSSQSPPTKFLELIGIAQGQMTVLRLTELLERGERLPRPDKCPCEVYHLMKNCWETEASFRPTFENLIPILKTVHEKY
Procedure: as §1, §2

T1 sequence (P23458 875-1153 limits assumed): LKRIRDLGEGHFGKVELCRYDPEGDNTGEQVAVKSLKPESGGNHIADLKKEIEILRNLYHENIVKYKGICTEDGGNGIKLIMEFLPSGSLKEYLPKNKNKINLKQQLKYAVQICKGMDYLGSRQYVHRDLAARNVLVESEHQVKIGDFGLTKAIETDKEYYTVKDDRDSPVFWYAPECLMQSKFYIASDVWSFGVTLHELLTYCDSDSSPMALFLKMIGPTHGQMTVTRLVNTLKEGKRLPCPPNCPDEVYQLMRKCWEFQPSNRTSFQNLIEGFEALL

Structure (SMILES) | IC50 (JAK1) [nM] | IC50 (JAK2) [nM] | IC50 (JAK3) [nM] | IC50 (TYK2) [nM]
NC(=O)c1cnc(Nc2cccc(NC(=O)N3CCCC3)c2)nc1NCC1CC1 [Example 123, 4-(cyclopropylmethylamino)-2-(3-(pyrrolidine-1-carboxamido)phenylamino)pyrimidine-5-carboxamide] | 10 to 100 | 10 to 100 | 1 to 10 | 1 to 10
CC(=O)Nc1cccc(Nc2ncc(C(N)=O)c(N[C@@H](CO)c3ccccc3)n2)c1 [Example 98, (R)-2-(3-acetamidophenylamino)-4-(2-hydroxy-1-phenylethylamino)pyrimidine-5-carboxamide] | 100 to 1000 | 100 to 1000 | 10 to 100 | 100 to 1000
CC(=O)Nc1cccc(Nc2ncc(C(N)=O)c(Nc3ccc(N4CCOCC4)c(F)c3)n2)c1 [Example 198] | > 1000 | 10 to 100 | 10 to 100 | 10 to 100
CC(=O)Nc1cccc(Nc2cc(NCC(C)C)c(C(N)=O)cn2)c1 [Example 323, 6-(3-acetamidophenylamino)-4-(isobutylamino)nicotinamide] | 100 to 1000 | 100 to 1000 | 10 to 100 | 10 to 100
C[C@@H](Nc1nc(Nc2cccc(N(C)C(=O)N3CCCC3)c2)ncc1C(N)=O)c1ccccc1 [Example 122, (R)-2-(3-(N-methylpyrrolidine-1-carboxamido)phenylamino)-4-(1-phenylethylamino)pyrimidine-5-carboxamide] | 100 to 1000 | 10 to 100 | 1 to 10 | 100 to 1000
CC(=O)Nc1cccc(Nc2ncc(C(N)=O)c(NC3Cc4ccccc4C3)n2)c1 [Example 92, 2-(3-acetamidophenylamino)-4-(2,3-dihydro-1H-inden-2-ylamino)pyrimidine-5-carboxamide] | 10 to 100 | 10 to 100 | 10 to 100 | 10 to 100
CC(=O)Nc1cccc(Nc2cc(NC3Cc4ccccc4C3)c(C(N)=O)cn2)c1 [Example 333, 6-(3-acetamidophenylamino)-4-(2,3-dihydro-1H-inden-2-ylamino)nicotinamide] | > 1000 | > 1000 | 100 to 1000 | 100 to 1000
CC(=O)Nc1cccc(Nc2ncc(C(N)=O)c(NCc3ccccn3)n2)c1 [Example 187, 2-(3-acetamidophenylamino)-4-(pyridin-2-ylmethylamino)pyrimidine-5-carboxamide] | 100 to 1000 | 10 to 100 | 10 to 100 | 10 to 100
CC(=O)Nc1cc(Nc2ncc(C(N)=O)c(NCc3cccc(F)c3)n2)ccc1OCCN(C)C [Example 228, 2-(3-acetamido-4-(2-(dimethylamino)ethoxy)phenylamino)-4-(3-fluorobenzylamino)pyrimidine-5-carboxamide] | 100 to 1000 | 10 to 100 | 1 to 10 | 10 to 100
C[C@@H](Nc1nc(Nc2cccc(NC(=O)N3CCOCC3)c2)ncc1C(N)=O)c1ccccc1 [Example 255, (R)—N-(3-(5-carbamoyl-4-(1-phenylethylamino)pyrimidin-2-ylamino)phenyl)morpholine-4-carboxamide] | 10 to 100 | 1 to 10 | < 1 | 10 to 100
CC(=O)Nc1cccc(Nc2ncc(C(N)=O)c(NCc3ccncc3)n2)c1 [Example 189, 2-(3-acetamidophenylamino)-4-(pyridin-4-ylmethylamino)pyrimidine-5-carboxamide] | 100 to 1000 | 100 to 1000 | 10 to 100 | 10 to 100
CNc1nc(Nc2cccc(NC(=O)N3CCCC3)c2)ncc1C(N)=O [Example 133, 4-(methylamino)-2-(3-(pyrrolidine-1-carboxamido)phenylamino)pyrimidine-5-carboxamide] | 100 to 1000 | 100 to 1000 | 10 to 100 | 10 to 100
CC(=O)Nc1cccc(Nc2ncc(C(N)=O)c(NCc3cc(F)ccc3F)n2)c1 [Example 102, 2-(3-acetamidophenylamino)-4-(2,5-difluorobenzylamino)pyrimidine-5-carboxamide] | 100 to 1000 | 10 to 100 | 1 to 10 | 10 to 100
CN(C(=O)N1CCCC1)c1cccc(Nc2ncc(C(N)=O)c(NCc3ccccc3)n2)c1 [Example 141, 4-(benzylamino)-2-(3-(N-methylpyrrolidine-1-carboxamido)phenylamino)pyrimidine-5-carboxamide] | 100 to 1000 | 10 to 100 | 1 to 10 | 100 to 1000
CN(C(=O)N1CCCC1)c1cc(Nc2ncc(C(N)=O)c(NCc3ccccc3)n2)ccc1Cl [Example 241, 4-(benzylamino)-2-(4-chloro-3-(N-methylpyrrolidine-1-carboxamido)phenylamino)pyrimidine-5-carboxamide] | 100 to 1000 | 100 to 1000 | 10 to 100 | 100 to 1000

The next lines start with the values.

IC50 (JAK1) [nM] | IC50 (JAK2) [nM] | IC50 (JAK3) [nM] | IC50 (TYK2) [nM] | Structure (SMILES)
10 to 100 | 1 to 10 | < 1 | 1 to 10 | N#CCC(=O)Nc1cccc(Nc2ncc(C(N)=O)c(NCc3cccc(F)c3)n2)c1 [Example 257, 2-(3-(2-cyanoacetamido)phenylamino)-4-(3-fluorobenzylamino)-pyrimidine-5-carboxamide]
100 to 1000 | 100 to 1000 | 100 to 1000 | 10 to 100 | CC(=O)Nc1cccc(Nc2cc(NC3CCCC3)c(C(N)=O)cn2)c1 [Example 330, 6-(3-acetamidophenylamino)-4-(cyclopentylamino)nicotinamide]
> 1000 | > 1000 | > 1000 | > 1000 | CNC(=O)c1cnc(Nc2cccc(NC(C)=O)c2)nc1NCc1ccccc1 [Example 112, 2-(3-acetamidophenylamino)-4-(benzylamino)-N-methylpyrimidine-5-carboxamide]
10 to 100 | 100 to 1000 | 10 to 100 | 10 to 100 | CC[C@H](C)Nc1nc(Nc2ccc(Cl)c(NC(=O)N3CCCC3)c2)ncc1C(N)=O [Example 176, (S)-4-(sec-butylamino)-2-(4-chloro-3-(pyrrolidine-1-carboxamido)phenylamino)pyrimidine-5-carboxamide]
10 to 100 | 10 to 100 | 1 to 10 | 1 to 10 | CC(=O)Nc1cccc(Nc2ncc(C(N)=O)c(NCCC(C)C)n2)c1 [Example 251, 2-(3-acetamidophenylamino)-4-(isopentylamino)pyrimidine-5-carboxamide]
10 to 100 | 10 to 100 | 10 to 100 | 10 to 100 | CC(=O)Nc1cccc(Nc2ncc(C(N)=O)c(N[C@H]3CCc4ccccc43)n2)c1 [Example 96, (S)-2-(3-acetamidophenylamino)-4-(2,3-dihydro-1H-inden-1-ylamino)pyrimidine-5-carboxamide]
100 to 1000 | 100 to 1000 | 1 to 10 | 100 to 1000 | C[C@@H](Nc1cc(Nc2cccc(NC(=O)N3CCCC3)c2)ncc1C(N)=O)c1ccccc1 [Example 325, (R)-4-(1-phenylethylamino)-6-(3-(pyrrolidine-1-carboxamido)phenylamino)nicotinamide]
> 1000 | > 1000 | 100 to 1000 | > 1000 | CN(C(=O)N1CCCC1)c1cc(Nc2ncc(C(N)=O)c(NCc3cccc(F)c3)n2)ccc1Cl [Example 242, 2-(4-chloro-3-(N-methylpyrrolidine-1-carboxamido)phenylamino)-4-(3-fluorobenzylamino)pyrimidine-5-carboxamide]
100 to 1000 | 100 to 1000 | 10 to 100 | 10 to 100 | CC(=O)Nc1cccc(Nc2cc(NCCC(C)C)c(C(N)=O)cn2)c1 [Example 327, 6-(3-acetamidophenylamino)-4-(isopentylamino)nicotinamide]
